Results on 3 molecules are retold here after patent US6936610B2, “Heterocyclic derivatives” (AstraZeneca UK Limited, priority 1996, dated 2005).

Molecules are shown by their SMILES. Where a name gives a salt, the structure may show the parent alone.

A word on the melting point: it is the temperature of the solid-liquid transition. Molecule `O=C(c1ccc(-c2ccncc2)cc1)N1CCN(S(=O)(=O)c2ccc3cc(Cl)ccc3c2)CC1` (as salt: trifluoroacetate) [Example 7, 1-(6-chloronaphth-2-ylsulphonyl)4-[4-(4-pyridyl)benzoyl]piperazine] came in with a melting point of 175 to 176 °C.

In turn, `Cc1cc(-c2ccc(C(=O)N3CCN(S(=O)(=O)c4ccc5cc(Br)ccc5c4)CC3)cc2)ccn1` [Example 8, 1-(6-bromonaphth-2-ylsulphonyl)-4-[4-(2-methyl-4-pyridyl)benzoyl]piperazine] yielded a melting point of 204 to 205 °C.

For `O=C(c1ccc(-c2ccnnc2)cc1)N1CCN(S(=O)(=O)c2ccc3cc(Br)ccc3c2)CC1` [Example 9, 1-(6-bromonaphth-2-ylsulphonyl)4-[4-(4-pyridazinyl)benzoyl]piperazine], the melting point was 128 to 130 °C.
